Laboratory results: patent US10766903B2 (ALMAC DISCOVERY LIMITED, priority 2016, dated 2020)
Structures can show the parent of a compound that is named as a salt. Where two headings read alike, the source gives them in different places.

Molecular target: USP7 (Homo sapiens (Human), UniProt Q93009)
Experiment: USP7 fluorescence polarisation (FP) biochemical assay, ubiquitin-Lys-TAMRA substrate
Experimental: Measurement of USP7 Inhibitory Activity
USP7 activity was monitored in a fluorescence polarisation (FP) homogeneous assay using the isopeptide ubiquitin-Lys-TAMRA substrate (U-558, Boston Biochem). Full-length USP7 was purchased from Boston Biochem (His6-USP7FL, E-519). Unless otherwise stated, all other reagents were purchased from Sigma-Aldrich. Enzymatic reactions were conducted in black flat-bottom polystyrene 384-well plates (Nunc) and 15 μL total volume. USP7 (2.5 nM, 5 μL) was incubated in assay buffer (50 mM HEPES (pH 7.2), 150 mM NaCl, 0.5 mM EDTA, 5 mM DTT, 0.05% BSA (w/v), 0.05% CHAPS) in the presence or absence of inhibitor (5 μl). Inhibitors were stored as 10 mM DMSO stocks in an inert environment (low humidity, dark, low oxygen, room temperature) using a Storage Pod System and serial dilutions were prepared in buffer just prior to the assay (from 200 to 0.1 μM, 8 dp curve). […] FP was measured every 15 min over a period of 1.5 h (within the linear range of the assay) using a Synergy 4 plate reader (BioTek) exciting at 530 nm and measuring the amount of parallel and perpendicular light at 575 nm. The FP signal was subsequently normalised to the control without compound present.

[1] = Table 4, biochemical assay, average of at least duplicate experiments, read-out: USP7 IC50
[2] = USP7 IC50, Table 4, biochemical assay, average of at least duplicate experiments

USP7, sequence (Q93009 whole entry): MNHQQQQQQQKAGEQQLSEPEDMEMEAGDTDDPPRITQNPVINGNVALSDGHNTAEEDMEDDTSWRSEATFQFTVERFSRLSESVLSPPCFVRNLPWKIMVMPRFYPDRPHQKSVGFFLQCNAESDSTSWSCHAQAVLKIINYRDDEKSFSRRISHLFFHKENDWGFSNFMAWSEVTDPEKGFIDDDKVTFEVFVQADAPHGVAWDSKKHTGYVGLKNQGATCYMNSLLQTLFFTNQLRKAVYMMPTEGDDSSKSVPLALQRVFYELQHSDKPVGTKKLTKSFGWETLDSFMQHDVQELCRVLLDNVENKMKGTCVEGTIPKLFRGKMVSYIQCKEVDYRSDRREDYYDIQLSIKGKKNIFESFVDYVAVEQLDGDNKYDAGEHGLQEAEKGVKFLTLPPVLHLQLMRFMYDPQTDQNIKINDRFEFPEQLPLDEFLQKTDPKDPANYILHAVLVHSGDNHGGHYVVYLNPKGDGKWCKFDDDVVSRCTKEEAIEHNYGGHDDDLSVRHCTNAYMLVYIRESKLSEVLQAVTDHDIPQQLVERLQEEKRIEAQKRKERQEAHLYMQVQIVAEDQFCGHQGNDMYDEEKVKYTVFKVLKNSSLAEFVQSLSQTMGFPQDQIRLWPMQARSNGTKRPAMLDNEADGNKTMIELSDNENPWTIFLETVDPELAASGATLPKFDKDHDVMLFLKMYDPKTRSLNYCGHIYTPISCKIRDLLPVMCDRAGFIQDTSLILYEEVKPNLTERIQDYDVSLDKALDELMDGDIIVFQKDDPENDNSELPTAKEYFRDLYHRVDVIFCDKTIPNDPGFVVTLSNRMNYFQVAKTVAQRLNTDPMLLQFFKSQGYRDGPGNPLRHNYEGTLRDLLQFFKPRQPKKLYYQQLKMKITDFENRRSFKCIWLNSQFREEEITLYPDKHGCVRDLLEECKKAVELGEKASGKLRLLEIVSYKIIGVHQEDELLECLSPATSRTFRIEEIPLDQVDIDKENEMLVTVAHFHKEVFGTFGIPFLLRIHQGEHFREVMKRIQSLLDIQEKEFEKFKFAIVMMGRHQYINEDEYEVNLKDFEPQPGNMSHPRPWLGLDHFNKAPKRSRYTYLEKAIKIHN

Row | IC50 [1] [nM] | Compound | also measured
1 | 250 to 999 | C=C(C)[C@H](C)CC(=O)N1CCC(O)(Cn2cnc3c(-c4ccccc4)n(C)nc3c2=O)CC1 [Example 35, (R)-6-((1-(3,4-Dimethylpent-4-enoyl)-4-hydroxypiperidin-4-yl)methyl)-2-methyl-3-phenyl-2H-pyrazolo[4,3-d]pyrimidin-7(6H)-one] | 
2 | 250 to 999 | Cn1nc2c(=O)n(CC3(O)CCN(C(=O)C[C@H](c4ccccc4)C(F)(F)F)CC3)cnc2c1-c1ccccc1 [Example 37, (R)-6-((4-Hydroxy-1-(4,4,4-trifluoro-3-phenylbutanoyl)piperidin-4-yl)methyl)-2-methyl-3-phenyl-2H-pyrazolo[4,3-d]pyrimidin-7(6H)-one] | 
3 | 1000 to 200000 | Cn1nc2c(=O)n(CC3(O)CCN(C(=O)CCc4ccccc4)CC3)cnc2c1C(F)(F)F [Example 39, 6-((4-Hydroxy-1-(3-phenylpropanoyl)piperidin-4-yl)methyl)-2-methyl-3-(trifluoromethyl)-2H-pyrazolo[4,3-d]pyrimidin-7(6H)-one] | IC50 (Table 3, effect of the R2 substituent, read-out: USP7 IC50): 14000 nM
4 | 1000 to 200000 | C[C@H](CC(=O)N1CCC(O)(Cn2cnc3c(Nc4ccccc4)n(C)nc3c2=O)CC1)c1ccccc1 [Example 43, (R)-6-((4-Hydroxy-1-(3-phenylbutanoyl)piperidin-4-yl)methyl)-2-methyl-3-(phenylamino)-2H-pyrazolo[4,3-d]pyrimidin-7(6H)-one] | 
5 | 1000 to 200000 | Cc1c(Cl)ncn(CC2(O)CCN(C(=O)C[C@@H](C)c3ccccc3)CC2)c1=O [Example 44, (R)-6-Chloro-3-((4-hydroxy-1-(3-phenylbutanoyl)piperidin-4-yl)methyl)-5-methylpyrimidin-4(3H)-one] | 
6 | 1000 to 200000 | C[C@H](CC(=O)N1CCC(O)(Cn2cnc(NCCN3CCCC3)c(Br)c2=O)CC1)c1ccccc1 [Example 45, (R)-5-Bromo-3-((4-hydroxy-1-(3-phenylbutanoyl)piperidin-4-yl)methyl)-6-((2-(pyrrolidin-1-yl)ethyl)amino)pyrimidin-4(3H)-one] | 
7 | < 250 | C[C@H](CC(=O)N1CCC(O)(Cn2cnc(N3CCC[C@H](N(C)C)C3)cc2=O)CC1)c1ccccc1 [Example 50, 6-((S)-3-(Dimethylamino)piperidin-1-yl)-3-((4-hydroxy-1-((R)-3-phenylbutanoyl)piperidin-4-yl)methyl)pyrimidin-4(3H)-one] | 
8 | 1000 to 200000 | C[C@H](CC(=O)N1CCC(O)(Cn2cnc(/C=C/CN3CCCC3)cc2=O)CC1)c1ccccc1 [Example 51, (R,E)-3-((4-Hydroxy-1-(3-phenylbutanoyl)piperidin-4-yl)methyl)-6-(3-(pyrrolidin-1-yl)prop-1-en-1-yl)pyrimidin-4(3H)-one] | 
9 | 1000 to 200000 | C[C@H](CC(=O)N1CCC(O)(Cn2cnc(/C=C/CN3CC[C@@H](N)C3)cc2=O)CC1)c1ccccc1 [Example 55, 6-((E)-3-((R)-3-Aminopyrrolidin-1-yl)prop-1-en-1-yl)-3-((4-hydroxy-1-((R)-3-phenylbutanoyl)piperidin-4-yl)methyl)pyrimidin-4(3H)-one, Formic Acid] | 
10 | 1000 to 200000 | C[C@H](CC(=O)N1CCC(O)(Cn2cnc(N[C@@H](Cc3ccccc3)CN3CCCC3)cc2=O)CC1)c1ccccc1 [Example 57, 3-((4-Hydroxy-1-((R)-3-phenylbutanoyl)piperidin-4-yl)methyl)-6-(((S)-1-phenyl-3-(pyrrolidin-1-yl)propan-2-yl)amino)pyrimidin-4(3H)-one, Formic Acid] | 
11 | 250 to 999 | C[C@H](CC(=O)N1CCC(O)(Cn2cnc(NC[C@H]3CCCN3C)cc2=O)CC1)c1ccccc1 [Example 65, 3-((4-Hydroxy-1-((R)-3-phenylbutanoyl)piperidin-4-yl)methyl)-6-((((R)-1-methylpyrrolidin-2-yl)methyl)amino)pyrimidin-4(3H)-one, Formic Acid] | 
12 | 1000 to 200000 | C[C@H](CC(=O)N1CCC(O)(Cn2cnc(NC[C@@H]3CCCN3C)cc2=O)CC1)c1ccccc1 [Example 66, 3-((4-Hydroxy-1-((R)-3-phenylbutanoyl)piperidin-4-yl)methyl)-6-((((S)-1-methylpyrrolidin-2-yl)methyl)amino)pyrimidin-4(3H)-one, Formic Acid] | 

Second part, the compound before the results:

Row | Compound | IC50 [1] [nM] | also measured
13 | C=C(C)[C@@H](CC(=O)N1CCC(O)(Cn2cnc3c(-c4ccccc4)n(C)nc3c2=O)CC1)C(F)(F)F [Example 36, (R)-6-((4-Hydroxy-1-(4-methyl-3-(trifluoromethyl)pent-4-enoyl)piperidin-4-yl)methyl)-2-methyl-3-phenyl-2H-pyrazolo[4,3-d]pyrimidin-7(6H)-one] | 1000 to 200000 | 
14 | C[C@H](CC(=O)N1CCC(O)(Cn2cnc(-c3cnn(C)c3)cc2=O)CC1)c1ccccc1 [Example 40, (R)-3-((4-Hydroxy-1-(3-phenylbutanoyl)piperidin-4-yl)methyl)-6-(1-methyl-1H-pyrazol-4-yl)pyrimidin-4(3H)-one] |  | IC50 [2]: 250 to 999 nM
15 | CC(C)Cn1cc(-c2cc(=O)n(CC3(O)CCN(C(=O)C[C@@H](C)c4ccccc4)CC3)cn2)cn1 [Example 41, (R)-3-((4-Hydroxy-1-(3-phenylbutanoyl)piperidin-4-yl)methyl)-6-(1-isobutyl-1H-pyrazol-4-yl)pyrimidin-4(3H)-one] |  | IC50 [2]: 250 to 999 nM
16 | C[C@H](CC(=O)N1CCC(O)(Cn2cnc(Nc3ccc4c(c3)C3CCC4N3)cc2=O)CC1)c1ccccc1 (stereo partly drawn) [Example 42, 3-((4-Hydroxy-1-((R)-3-phenylbutanoyl)piperidin-4-yl)methyl)-6-((1,2,3,4-tetrahydro-1,4-epiminonaphthalen-6-yl)amino)pyrimidin-4(3H)-one hydrochloride] |  | IC50: 250 to 999 nM
17 | C[C@H](CC(=O)N1CCC(O)(Cn2cnc(N3CCC[C@H](N)C3)cc2=O)CC1)c1ccccc1 [Example 47, 6-((S)-3-Aminopiperidin-1-yl)-3-((4-hydroxy-1-((R)-3-phenylbutanoyl)piperidin-4-yl)methyl)pyrimidin-4(3H)-one hydrochloride] |  | IC50 [2]: 250 to 999 nM
18 | C[C@H](CC(=O)N1CCC(O)(Cn2cnc(N3CCC(N)CC3)cc2=O)CC1)c1ccccc1 [Example 48, (R)-6-(4-Aminopiperidin-1-yl)-3-((4-hydroxy-1-(3-phenylbutanoyl)piperidin-4-yl)methyl)pyrimidin-4(3H)-one hydrochloride] |  | IC50 [2]: 250 to 999 nM
19 | C[C@H](CC(=O)N1CCC(O)(Cn2cnc(N3CCC4(CCNC4)CC3)cc2=O)CC1)c1ccccc1 [Example 49, (R)-3-((4-Hydroxy-1-(3-phenylbutanoyl)piperidin-4-yl)methyl)-6-(2,8-diazaspiro[4.5]decan-8-yl)pyrimidin-4(3H)-one hydrochloride] |  | IC50 [2]: 250 to 999 nM
20 | C[C@H](CC(=O)N1CCC(O)(Cn2cnc(NCCN3CCCCC3)cc2=O)CC1)c1ccccc1 [Example 52, (R)-3-((4-Hydroxy-1-(3-phenylbutanoyl)piperidin-4-yl)methyl)-6-((2-(piperidin-1-yl)ethyl)amino)pyrimidin-4(3H)-one] | < 250 | 
21 | C[C@H](CC(=O)N1CCC(O)(Cn2cnc(-c3cnn(CCN(C)C)c3)cc2=O)CC1)c1ccccc1 [Example 54, (R)-6-(1-(2-(Dimethylamino)ethyl)-1H-pyrazol-4-yl)-3-((4-hydroxy-1-(3-phenylbutanoyl)piperidin-4-yl)methyl)pyrimidin-4(3H)-one, Formic Acid] |  | IC50 [2]: 250 to 999 nM
22 | C[C@H](CC(=O)N1CCC(O)(Cn2cnc(/C=C/CN3CC[C@H](N)C3)cc2=O)CC1)c1ccccc1 [Example 56, 6-((E)-3-((S)-3-Aminopyrrolidin-1-yl)prop-1-en-1-yl)-3-((4-hydroxy-1-((R)-3-phenylbutanoyl)piperidin-4-yl)methyl)pyrimidin-4(3H)-one, Formic Acid] | 1000 to 200000 | 
23 | C[C@H](CC(=O)N1CCC(O)(Cn2cnc(NC[C@@H](C)N3CCCC3)cc2=O)CC1)c1ccccc1 [Example 58, 3-((4-Hydroxy-1-((R)-3-phenylbutanoyl)piperidin-4-yl)methyl)-6-(((R)-2-(pyrrolidin-1-yl)propyl)amino)pyrimidin-4(3H)-one] | < 250 | 
24 | C[C@H](CC(=O)N1CCC(O)(Cn2cnc(NC[C@H](C)N3CCCC3)cc2=O)CC1)c1ccccc1 [Example 59, 3-((4-Hydroxy-1-((R)-3-phenylbutanoyl)piperidin-4-yl)methyl)-6-(((S)-2-(pyrrolidin-1-yl)propyl)amino)pyrimidin-4(3H)-one, Formic Acid] | < 250 | 
25 | C[C@H](CN1CCCC1)Nc1cc(=O)n(CC2(O)CCN(C(=O)C[C@@H](C)c3ccccc3)CC2)cn1 [Example 60, 3-((4-Hydroxy-1-((R)-3-phenylbutanoyl)piperidin-4-yl)methyl)-6-(((R)-1-(pyrrolidin-1-yl)propan-2-yl)amino)pyrimidin-4(3H)-one, Formic Acid] | < 250 | 
26 | C[C@H](CC(=O)N1CCC(O)(Cn2cnc(N[C@@H](C)CN3CCCC3)cc2=O)CC1)c1ccccc1 [Example 61, 3-((4-Hydroxy-1-((R)-3-phenylbutanoyl)piperidin-4-yl)methyl)-6-(((S)-1-(pyrrolidin-1-yl)propan-2-yl)amino)pyrimidin-4(3H)-one, Formic Acid] |  | IC50 [2]: 250 to 999 nM
27 | C[C@H](CC(=O)N1CCC(O)(Cn2cnc(N3CC[C@H](N(C)C)C3)cc2=O)CC1)c1ccccc1 [Example 62, 6-((S)-3-(Dimethylamino)pyrrolidin-1-yl)-3-((4-hydroxy-1-((R)-3-phenylbutanoyl)piperidin-4-yl)methyl)pyrimidin-4(3H)-one] |  | IC50 [2]: 250 to 999 nM
